Experimental data reported in US9220680B2, “Compositions and methods for localized drug delivery through mammary papillae” (South Dakota State University, priority 2012, dated 2015).
Entries after “also recorded” stand apart in the source; their conditions may differ. Read-outs that look alike come from different tables or passages of the source.

Columns and labels:
[1] = In vitro penetration and permeation via excised porcine mammary papilla, Franz diffusion cell (Example 1); type: in vitro ADME
Experimental: Drug penetration and permeation via mammary papillae was performed in a Franz diffusion cell using excised porcine mammary papilla. […] The transport studies were performed at time points for 6 and 48 hours.
In a separate study to evaluate the drug retention and disposition, the treatment was removed after 6 hours and the study was continued until the 48 hour mark. Samples were withdrawn from the receptor compartment at different time points. At the end of study, the mammary papilla was cut to 2 mm thick cylindrical sections from the top to the base of the tissue and was digested using a tissue solubilizer. The drug concentrations were determined by liquid scintillation counting.
Methods for the preparation of porcine mammary papilla. Freshly excised strips of porcine mammary papilla (6-7 months old animals) were washed with deionized water followed by removal of subcutaneous fatty tissue using a scalpel. Keeping the mammary papilla in the center, 3 cm×3 cm sized specimens of the tissue were excised, subcutaneous fat tissue was removed, and the tissue was frozen at −20° C. until used for the drug penetration and permeation studies.
Breast tissue was mounted between the two compartments of a vertical Franz diffusion cell (FDC) with breast tissue sandwiched between donor and receptor compartments. A mammary papilla was set in upright position inside the donor compartment of Franz diffusion cell. […] Samples were withdrawn from the receptor at different time points for 48 hours to determine drug concentration by radioactive count. At the end of 48 hours, tissue samples were taken for drug content determination. […]
In a second study, the mammary papillae in Franz diffusion cells were treated with the drugs for 48 hours and the permeation was followed through 48 hours. This analysis provided information regarding any saturation from drug treatment for extended periods of time. […]
Extraction of drugs from the mammary papilla. At the end of permeation study, the mammary papilla was removed from Franz diffusion cell and thoroughly washed with deionized water and blotted dried. Approximately 2 mm thick sections of the tissue were taken using a scalpel. These sections were homogenized, the drug was extracted, and the drug concentration was determined by radioactive counts.

[2] = Transmammary permeation across porcine mammary papilla with and without removal of the keratin plug (Experiments 7-10); type: in vitro ADME; details: porcine mammary papilla
From the text: Keratin plug was removed from human and porcine mammary papilla using an alcoholic cotton swab. The swab was gently rubbed on the surface of the mammary papilla. The mammary papilla was observed under the microscope to confirm the removal of the plug from the surface and to confirm that epidermis of the mammary papilla was not damaged during this procedure.
The drug solutions were spiked with radioactive substances. […] Receptor medium was PBS with 7.4 pH.
(§1) Mammary papillae tissues were thawed. Keratin plugs were removed from the mammary papilla tissues using swabs with ethanol. […] The drug solutions were spiked with radioactive substances. […] Receptor medium was PBS with 7.4 pH.
as §1
Mammary papillae tissues were thawed. Keratin plugs were removed from the mammary papilla tissues using swabs with ethanol. […] The drug solutions were spike with radioactive substances. […] Receptor medium was PBS with 7.4 pH.

[3] = Permeation across human breast skin (Experiments 16-18); type: in vitro ADME; details: human breast skin, value (SEM)
From the text: Mammary papillae and skin tissues were thawed. Keratin plugs were removed from the mammary papilla tissues using swabs with ethanol. […] The drug solutions were spiked with radioactive substances. […] Receptor medium was PBS with 7.4 pH. […] Results may be seen in FIG. 41 and Table 20.
Mammary papillae and skin tissues were thawed. Keratin plugs were removed from the mammary papilla tissues using swabs with ethanol. […] The drug solutions were spiked with radioactive substances. […] Receptor medium was PBS with 7.4 pH. […] Results may be seen in FIG. 42 and Table 22. […]

[4] = Biodistribution of 5FU in rats 30 minutes after intraductal and intravenous injection (Experiment 24); type: in vivo, Sprague-Dawley rats; details: rat; for Drug per gram tissue of mammary papilla: 30 min, n=1
Experimental: The hair on the skin of the rats was removed using a hair removing formulation. The treatment was given after 24 hours to make sure the skin is recovered if damaged or altered due to the hair removal treatment.
Next day, the rats were placed under controlled Isoflurane anesthesia. Now 500 μl of Blood samples were collected from each animal before beginning the experiment, by retro-orbital technique, as a control. For intraductal injection the mammary papilla to be treated was gently wiped with an alcoholic cotton swab to remove the keratin plug. Now 50 μl of 5FU solution in saline (10 mg/ml) was injected into the duct of the mammary papilla under a stereo-microscope. After this the animal was removed from anesthesia and placed into the cage. In case of intravenous injection, similar to intraductal, 50 μl of 5FU solution in saline (10 mg/ml) was injected into the tail vein and the animal was placed into the cage for 30 minutes. At the end of 30 minutes 500 μl of blood sample was collected. After this the rats were euthanized. Now for intraductal injection the treated area of the rat was cleaned with water. The rat was opened from the abdominal skin. Treated mammary papilla and mammary gland existing underneath the treated mammary papilla was excised and collected. Lateral mammary papilla and mammary gland was collected along with distant mammary papilla and mammary gland, as controls. Followed by this other organs including heart, brain, liver, spleen, kidneys and lungs were collected. In case of intravenous treatment, blood was collected and mammary tissues (mammary papilla, mammary gland and surrounding breast skin) was collected along with other organs including heart, brain, liver, spleen, kidneys and lungs. All the tissues were weighed and then mechanically homogenized to extract the drug. The homogenates were mixed with hydrogen peroxide solution (30% v/v) and then radioactivity into the samples was measured by liquid scintillation counting. Similarly blood samples were centrifuged and the supernatants were analyzed by scintillation counting. Results may be seen in FIG. 50, Tables 30-31.

[5] = cited from earlier work
[6] = rat
[7] = excised porcine mammary papilla, saturated solution in ethanol:water (50:50), 48 h, mean ± SEM, n=3
[8] = porcine mammary papilla, end of 48 h, mean ± SEM, n=3

SMILES: O=c1[nH]cc(F)c(=O)[nH]1 [5FU, 5-fluorouracil]
- Lag time ([1]; excised porcine mammary papilla, Franz diffusion cell, saturated solution in ethanol:water (50:50), 48 h, mean ± SEM, n=3): 8.18 ± 0.79 h
- Cumulative % permeated [1, 7]: 5.71 ± 0.06%
- Flux × 10^3 [1, 7]: 38.46 ± 2.38 μM · cm^2 · hr^−1
- Permeability coefficient × 10^3 [1, 7]: 0.25 ± 0.015 cm^2 · hr^−1
- cumulative amount permeated [1, 7]: 4.38 ± 0.04 µM
- Cumulative % retained [1, 8]: 4.94 ± 0.74%
- Cumulative amount retained [1, 8]: 3.80 ± 0.56 µM
- Drug extraction from 2 mm thick mammary papilla sections, Section A (tip) [1, 8]: 13.47 ± 1.35 µM/g
- Drug extraction from 2 mm thick mammary papilla sections, Section B [1, 8]: 11.78 ± 1.69 µM/g
- Drug extraction from 2 mm thick mammary papilla sections, Section C [1, 8]: 9.80 ± 1.44 µM/g
- Drug extraction from 2 mm thick mammary papilla sections, Section D (base) [1, 8]: 5.84 ± 1.69 µM/g
- Permeation across mammary papilla (in words) ([1]; porcine mammary papilla, treatment up to 48 hours): significant amount of 5FU passes through the mammary papilla
- Transmammary flux [2]: 10.79 μg/sq·cm/h
- Change of permeation upon removal of the keratin plugs (in words) ([2]; donor in 50:50 ethanol:water, 48 hours): increases slightly, though statistically not significant
- lag time ([3]; 5FU 20 mg/ml in 1:1 ethanol:water): 3.64 (0.37) hours
- cumulative amount permeated ([3]; 5FU 20 mg/ml, 48 hours): 2.69 (0.22) μmole
- Drug retention in tissue ([3]; 5FU 20 mg/ml, end of 48 hours): 9.56 (1.11) umole/g of tissue
- Flux ([3]; 5FU 20 mg/ml): 0.08 (0.01) μmole/cm^2/hour
- Drug per gram tissue, mammary gland ([4]; ID (30 min)): 0.018 µmol/g
- Drug per gram tissue, surrounding skin ([4]; ID (30 min)): 0.03 µmol/g
- Drug per gram tissue, mammary gland ([4]; IV (30 min)): 0.009 µmol/g
- Drug per gram tissue, surrounding skin ([4]; IV (30 min)): 0 µmol/g
- 5FU in vital organs of the body ([4]; intraductal and intravenous injection, 30 minutes): significant amount of 5FU in vital organs of the body including kidneys, liver and brain
- Drug per gram tissue of mammary papilla ([4]; intraductal injection 50 μl of 10 mg/ml 5FU in saline): 0.16 µmol/g
- Drug per gram tissue of mammary papilla ([4]; intravenous injection 50 μl of 10 mg/ml 5FU in saline): 0 µmol/g
- Log P [5]: −0.89
- Profile of 5FU in plasma ([6]; intravenous injection): quickly eliminating from the blood
- Retention of 5FU in mammary papilla ([6]; intravenous injection, 30 minutes): some accumulation of 5FU into the mammary papilla
- 5FU retention into the vital organs (kidneys, heart, liver, lungs, spleen and brain) ([6]; topical application (transmammary and transdermal) vs intravenous injection): several folds lower than that after intravenous injection
- 5FU in blood / plasma ([6]; topical delivery (transmammary and transdermal), 6 h): no amount of 5FU was observed into the blood; also recorded: below the level of detection
- Retention of 5FU in mammary papilla ([6]; transdermal treatment, 6 h): no 5FU was observed into the mammary papilla
- Amount of 5FU in mammary gland ([6]; transmammary treatment 250 μl of 10 mg/ml for 6 h, compared with intravenous and transdermal): highest amount of 5FU in mammary gland
- Retention of 5FU in mammary papilla ([6]; transmammary treatment, 6 h): significant retention of 5FU into the mammary papilla
